Experimental data: US3984413A, “Phenoxyalkanecarboxylic acid esters of hydroxyalkyltheophyllines and method for their manufacture” (L. Merckle KG, priority 1973, dated 1976)
Read-outs that look alike come from different tables or passages of the source.

Columns and labels:
[1] = acute toxicity (LD50) in mice, oral; settings: in vivo, mouse
Description: (§1) The acute toxicity of the preparations according to the invention was tested on CFJ strain mice and Sprague-Dawley rats.
(§2) The test substances according to Examples 2,5,6,8 and 10 were administered orally as a 5% suspension in methylcellulose by means of a probang, while the test material according to Example 4, was administered in a 8% gelatin suspension. The test materials for Examples 1 and 3 were administered orally by probang in an aqueous kaolin paste to rats (5 female and 5 male rats weighing 140 to 185 grams each).
(§3) The period of observation was 7 days.

[2] = acute toxicity (LD50) in rats, oral; settings: rat, in vivo
Description: as §1, §2, §3

[3] = antilipemic and anticholesterolemic action in rats on fatty diet, 14 days; format: in vivo, rat (male SPF Wistar); settings: for Drop (nonvolatile triglycerides) / Final value cholesterol / Final value nonvolatile triglycerides / Drop (cholesterol): 14 days; for Final value cholesterol / Final value nonvolatile triglycerides: blood serum; for reduction of the triglycerides compared with Clofibrat: in a substantially lower dosage than Clofibrat
Description: (§4) The antilipemic and anticholesterolemic action of the compounds according to the invention and of Clofibrat as a standard of comparison was tested on each of 10 male SPF Wistar strain rats of body weights from 80 to 90 g. For test purposes the animals were kept individually apart with restricted feed but water as desired. The animals of control group I were given 10 g basal diet daily, those of control group II, the test groups as well as the Clofibrat comparison group received in addition to the basal diet a fatty composition consisting of 40 g/kg butter with 5 g/kg cholesterol. The test substances conforming to the examples, and also the Clofibrat, were suspended in a 0.2% methylcellulose solution and administered by probang. The final cholesterol value and the value of the nonvolatile triglycerides was determined after 14 days treatment. The analyses were performed in the blood serum by means of an SMA 12/60 auto-analyzer.

[4] = over-all tolerance and clinical pattern during the rat lipid trial; format: in vivo, rat (male SPF Wistar)
Description: as §4
There were no deaths. […] No difference could be determined in hearing tests.

[5] = action on peripheral circulation in narcotized dogs; format: in vivo, dog
Excerpt: According to Examples 2, 3 and 4, the peripheral circulation is increased some 20-30% of its initial level by the test substances according to those examples.

[6] = action on blood pressure in narcotized dogs; settings: into the duodenum, doses up to 200 mg/kg
[7] = mouse; comparison, literature data; 10080 min; cited from earlier work
[8] = cited from earlier work
[9] = oral, 5% suspension in methylcellulose, 7 days, according to Litchfield and Wilcoxon
[10] = versus control groups and Clofibrat comparison group

SMILES	LD50 at 168 h [1, 9] [mg/kg]	Drop (nonvolatile triglycerides) ([3]; 100 mg/kg) [%]	Final value cholesterol ([3]; 100 mg/kg) [mg %]	Final value nonvolatile triglycerides ([3]; 100 mg/kg)	increase of peripheral circulation, of its initial level [5]	systolic and diastolic blood pressure [6]	also measured
CC(Oc1cccc(C(F)(F)F)c1)C(=O)OCCn1cnc2c1c(=O)n(C)c(=O)n2C (stereo not shown) [Example 8]	2140	–	–	–	–	–	–
Cn1c(=O)c2c(ncn2CC(COC(=O)COc2ccc(Cl)cc2)OC(=O)COc2ccc(Cl)cc2)n(C)c1=O (stereo not shown) [Example 3, 1-(7-theophyllinyl)-2,3-propylidenedi(p-chlorophenoxy acetate)]	–	44.2	122.0	75.7	20-30%	did not acutely affect the systolic and diastolic blood pressure to any substantial degree	LD50 at 168 h ([2]; po): > 4000 mg/kg; reduction of the triglycerides compared with Clofibrat [3]: more than twice as large a reduction of the triglycerides; over-all tolerance [4, 10]: no differences in the over-all tolerance
CC(Oc1ccc(Cl)cc1)C(=O)OCCn1cnc2c1c(=O)n(C)c(=O)n2C (stereo not shown) [Example 6]	1540	–	–	–	–	–	–
Cn1c(=O)c2c(ncn2CCOC(=O)C(Oc2ccc(Cl)cc2)Oc2ccc(Cl)cc2)n(C)c1=O [Example 4, 1-(7-theophyllinyl)-2-ethyl bis-(p-chlorophenoxy) acetate]	–	–	111.0	179.7	20-30%	did not acutely affect the systolic and diastolic blood pressure to any substantial degree	LD50 at 168 h ([1]; po): 1910 mg/kg; Final value cholesterol ([3]; 35 mg/kg): 132.3 mg %; Final value nonvolatile triglycerides ([3]; 35 mg/kg): 148.3; Drop (cholesterol) ([3]; 100 mg/kg): 9.8%; weight increase ([4]; 100 mg/kg dosage): reduced increase in weight
Cn1c(=O)c2c(ncn2CCOC(=O)COc2ccc(F)cc2)n(C)c1=O [Example 10]	1680	–	–	–	–	–	–
Cn1c(=O)c2c(ncn2CCOC(=O)COc2ccc(Cl)cc2)n(C)c1=O [Example 5]	1510	–	–	–	–	–	–
Cn1c(=O)c2c(ncn2CCOC(=O)C(C)(C)Oc2ccc(Cl)cc2)n(C)c1=O [Example 1, 1-(7-theophyllinyl)-2-ethyl [2-(p-chlorophenoxy)-isobutyrate]]	–	17.3	95.2	112.2	up to 10%	–	LD50 at 168 h ([2]; oral by probang, aqueous kaolin paste, 7 days observation): > 4000 mg/kg; Drop (cholesterol) ([3]; 100 mg/kg): 22.7%; lowering of increased cholesterol values (in words) ([3]; in comparison to Clofibrat): with greater significance lower the increased cholesterol values; reduction of the triglycerides (in words) ([3]; rat, in vivo): comparatively good reduction of the triglycerides; over-all tolerance ([4]; rat, in vivo): no differences in the over-all tolerance; peripheral circulation activity (in words) [5]: only slight activity
Cn1c(=O)c2c(ncn2CC(O)COC(=O)COc2ccc(Cl)cc2)n(C)c1=O (stereo not shown) [Example 2, 1-(7-theophyllinyl)-2-hydroxy-3-propyl (p-chlorophenoxyacetate)]	2150	45.9	130.3	73.4	20-30%	did not acutely affect the systolic and diastolic blood pressure to any substantial degree	reduction of the triglycerides compared with Clofibrat [3]: more than twice as large a reduction of the triglycerides; over-all tolerance [4, 10]: no differences in the over-all tolerance
CCOC(=O)C(C)(C)Oc1ccc(Cl)cc1 [Clofibrat, ethyl 2-(p-chlorophenoxy) isobutyrate, reference compound]	–	–	–	–	–	–	Drop (nonvolatile triglycerides) ([3]; 250 mg/kg): 20.6%; Final value cholesterol ([3]; 250 mg/kg): 133.3 mg %; Final value nonvolatile triglycerides ([3]; 250 mg/kg): 107.7; lowering of cholesterol ([3]; fatty diet rats, in these experimental trials): absolutely inactive; LD50 [7]: 1150 mg/kg; effect on cholesterol value ([8]; fatty diet rat test, Berger et al. 1969): does not lower but even raises the cholesterol value; lowering of cholesterol ([8]; reported in the literature): frequently been reported in the literature
